Assay [1] concerns the target GluN1/GluN2D (Rattus norvegicus, UniProt Q62645). In kind it is cell-based. The following applies: absence of QNZ46; continuous presence of glycine.
Assay [2] has as its target GluN1/GluN2D (Rattus norvegicus, UniProt P35439+Q62645). The following applies: read-out: EC50 of agonist.

What is called pEC50 is −log10 of the EC50, conventionally taken in molar units.

pEC50: −log10 of the molar value. Read-outs that look alike come from different tables or passages of the source.

Sequence of GluN1/GluN2D (Rattus norvegicus, UniProt P35439+Q62645) (Q62645 28-1323, other chains not shown): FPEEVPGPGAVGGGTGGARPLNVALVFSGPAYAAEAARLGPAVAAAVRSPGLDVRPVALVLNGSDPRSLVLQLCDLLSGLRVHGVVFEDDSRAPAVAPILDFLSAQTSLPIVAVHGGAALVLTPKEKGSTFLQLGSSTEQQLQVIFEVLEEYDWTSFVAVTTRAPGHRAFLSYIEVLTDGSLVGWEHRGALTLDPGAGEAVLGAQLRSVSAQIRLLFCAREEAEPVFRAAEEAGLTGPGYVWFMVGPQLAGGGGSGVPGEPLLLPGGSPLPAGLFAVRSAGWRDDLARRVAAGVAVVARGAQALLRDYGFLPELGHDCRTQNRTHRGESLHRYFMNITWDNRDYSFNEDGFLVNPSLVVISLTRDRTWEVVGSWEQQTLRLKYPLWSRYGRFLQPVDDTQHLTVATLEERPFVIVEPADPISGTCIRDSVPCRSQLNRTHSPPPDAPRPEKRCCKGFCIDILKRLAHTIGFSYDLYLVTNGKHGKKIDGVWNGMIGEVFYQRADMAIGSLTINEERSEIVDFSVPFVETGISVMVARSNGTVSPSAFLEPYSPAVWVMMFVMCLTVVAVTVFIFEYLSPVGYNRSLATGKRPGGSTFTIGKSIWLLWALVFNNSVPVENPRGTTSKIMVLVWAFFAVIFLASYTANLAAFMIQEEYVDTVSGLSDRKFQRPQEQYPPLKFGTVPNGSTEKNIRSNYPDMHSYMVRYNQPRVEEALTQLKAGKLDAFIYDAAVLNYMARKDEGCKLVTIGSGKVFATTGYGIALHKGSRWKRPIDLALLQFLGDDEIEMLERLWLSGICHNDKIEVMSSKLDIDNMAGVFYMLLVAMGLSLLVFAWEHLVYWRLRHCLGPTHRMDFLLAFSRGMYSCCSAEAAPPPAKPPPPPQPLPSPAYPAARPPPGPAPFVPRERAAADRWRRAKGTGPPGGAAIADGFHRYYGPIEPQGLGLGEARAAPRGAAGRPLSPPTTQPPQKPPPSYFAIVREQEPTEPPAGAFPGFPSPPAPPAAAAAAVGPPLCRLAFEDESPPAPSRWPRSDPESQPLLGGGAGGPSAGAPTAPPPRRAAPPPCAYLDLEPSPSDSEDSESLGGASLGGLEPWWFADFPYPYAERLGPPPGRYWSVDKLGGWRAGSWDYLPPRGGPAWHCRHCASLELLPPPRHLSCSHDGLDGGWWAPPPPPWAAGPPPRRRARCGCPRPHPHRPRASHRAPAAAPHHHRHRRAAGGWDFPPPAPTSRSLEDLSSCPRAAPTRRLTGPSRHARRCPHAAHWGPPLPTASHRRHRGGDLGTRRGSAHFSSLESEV
Sequence of GluN1/GluN2D (Rattus norvegicus, UniProt Q62645) (Q62645 28-1323, other chains not shown): as above

In the case of `N[C@@H](CCC(=O)O)C(=O)O` [glutamate], the “time constant for agonist deactivation (τweighted)” value in assay [1] came out at 3810 ms. Moreover, the pEC50 is 6.36 in assay [2] (in the absence of QNZ46) and 6.66 in assay [2] (in the presence of 10 μM QNZ46).

The record behind these values is PMC3063124 (The Journal of neuroscience : the official journal of the …, 2011).
